# Test results: US3984470A, “Amidoxime derivatives and process for preparing the same” (priority 1974, dated 1976)
# Key:
# reserpine-induced ptosis = test: Reserpine-induced ptosis in the rat; assay type: in vivo, male rats of the CF1 strain; details: reserpine 5 mg/kg i.p., score scale 0-4, mean to 6th hour vs controls
# Protocol: (§2) The thymoanaleptic properties of the compounds of the invention were determined by means of reserpine-induced ptosis and hypothermia in the rat.
# An intraperitoneal dose of 5 mg/kg of reserpine was administered to batches of 5 male rats of the CF1 strain weighing an average of 300 g.
# Thirty minutes later a dose of the compound to be studied was given by oral route and the inhibitory effect of the reserpine was noted every hour up to the sixth hour. Ptosis was evaluated for each eye in accordance with the following scale:
# 4 : eyelids completely closed.
# The difference between these two averages represents the average decrease of the ptosis in the treated animals as compared to the controls.
# [1] = system: stereotypies induced by amphetamine; test: Potentiation of the stereotypies induced by amphetamine; assay type: in vivo, rats
# Protocol: It is commonly admitted that amphetamine induces stereotypies by stimulating the dopaminergic receptors and inhibiting the re-uptake of dopamine into the neuron.
# The thymoanaleptics potentiate these stereotypies.
# Thirty minutes later, a dose of 10 mg/kg of the compound to be tested was given by oral route. Note was taken of the intensity of the stereotypies every 30 minutes for 150 minutes in accordance with the following scale which indicates the behaviour of the animal.
# 0 : the rat is motionless and asleep
# 1 : the rat is motionless and awake
# 3 : the rat stands on its hind paws and sniffs the lid of its cage in a stereotyped manner.
# 4 : the rat licks the walls of its cage in a stereotyped manner
# 5 : the rat bites the bars of its cage or sniffs the shavings of its litter in a stereotyped manner
# 6 : the rat chews the shavings in a stereotyped manner
# The average of the 5 results obtained for each batch was calculated and compared with the average obtained with the control animals.
# The difference between these averages represents the mean increase of the steroetypies of the treated animals in comparison with the controls.
# [2] = system: reserpine-induced hypothermia; test: Reserpine-induced hypothermia in the rat; assay type: in vivo, male rats CF1; details: reserpine 5 mg/kg i.p., mean to 6th hour vs controls
# Protocol: as §2
# An intraperitoneal dose of 5 mg/kg of reserpine was administered to batches of 5 male rats CF1 weighing an average of 300 g. Thirty minutes later, the rectal temperature was determined and then a dose of the compound to be tested was given by oral route, except to the control animals. The rectal temperature of all the animals including the controls was taken every hour up to the 6th hour.
# The difference between these two averages enabled an estimation to be made regarding the antagonistic effect of the compounds of the invention on the hypothermia induced by reserpine.
# [3] = system: cholinergic effects provoked by tremorine; test: Cholinolytic properties: action with respect to tremorine; assay type: in vivo, male mice of the OF1 strain; details: 10 mg/kg oral; tremorine 10 mg/kg; difference vs controls
# Protocol: When injected into mice, tremorine and its metabolite, oxotremorine, produce central cholinergic effects, i.e. normal and provoked tremor as well as peripheral cholinergic effects i.e. weeping, sweating diarrhoea and salivation.
# Male mice of the OF1 strain weighing 22 g, were divided into batches of 10. Each batch with the exception of the control animals, received, by oral route, a dose of the compound to be tested.
# Thirty minutes later, 10 mg/kg of tremorine were administered to all the batches and thirty minutes after the injection of tremorine note was taken of the cholinergic effects on each animal in accordance with the following scale: […]
# toxicity of yohimbine = test: Potentiation of the toxicity of yohimbine (test of QUINTON); assay type: in vivo, male mice; details: yohimbine hydrochloride 25 mg/kg i.p.; for mortality at 50 mg/kg: Mus musculus, 50 mg/kg oral, mortality after 24 hours
# Protocol: Yohimbine is a substance which provokes an increase in the serotonine level in the brain or a decrease in norepinephrine according to the author.
# For this purpose, the test of QUINTON was used which is described in Brit. J. Pharmacol. 21, 51 (1963). […] […] The percentage of mortality was noted after 24 hours.
# Table III hereunder expresses the percentage of potentiation of the toxicity due to yohimbine in comparison with the controls.
# The percentage in question was determined 24 hours after the administration of yohimbine.
# [4] = system: aggressivity of killer rats; test: Aggressivity of killer rats; assay type: in vivo, male rats; details: for inhibition in vivo at 25 mg/kg: 25 mg/kg i.p.; for inhibition in vivo at 20 mg/kg: 20 mg/kg i.p.; for antiaggressive properties: conclusion from Table V
# Text: If, under certain conditions, male rats are kept alone in individual cages for several weeks, the become spontaneously aggressive towards any mouse, which they kill as soon as it is placed in the same cage. Mice were introduced one after another into cages containing an isolated rat and a selection was made of the rats which immediately killed three mice. In this way batches of 6 to 8 rats were constituted. The rats were then given the compound to be studied by intraperitoneal route in such a way that each batch received a higher dose than the preceding batch. […] Table V which follows contains the results obtained 30 minutes after administration of the compound to be studied.
# spontaneous motricity = test: Spontaneous motricity in the mouse; assay type: in vivo; details: 50 mg/kg intragastric, mouse
# Protocol: Tests were also performed with a view to determining whether the compounds of the invention modify spontaneous motricity.
# [5] = Toxicity, method of KARBER and BEHRENS, mice; details: mouse, in vivo, mice, after 48 hours
# Protocol: (§1) Finally, tests of toxicity were performed with compounds of the invention following the method of KARBER and BEHRENS.
# [6] = Toxicity, method of KARBER and BEHRENS, rats; details: rat, in vivo, rats, after 48 hours
# Protocol: as §1
# neuromuscular functions = test: Rotarod test of BOISSIER / neuromuscular functions; assay type: in vivo, mouse; details: up to 40 mg/kg oral, for 3 hours after administration
# [7] = 10 mg/kg oral, amphetamine 10 mg/kg i.p., every 30 min for 150 min
# [8] = Rattus norvegicus, ip, 0.5 h, 30 minutes after administration
# [9] = 20 mg/kg, same conditions (amphetamine 10 mg/kg i.p.)
SMILES,Average decrease of Ptosis (reserpine-induced ptosis; 10 mg/kg oral),"Average increase of the stereotypies [1, 7]",Average inhibition of hypothermia (positive °C) ([2]; 10 mg/kg oral),mortality at 50 mg/kg (toxicity of yohimbine),"inhibition in vivo at 25 mg/kg [4, 8]",also measured
"Cc1oc2ccccc2c1OC(C)(C)C(N)=NO [Compound 22, 2-(2-Methyl-3-benzofuryloxy)-2-methyl-propionamidoxime]",0.3,4.2,0.5 °C,–,–,Central response tremor: Normal [3]: 0; Central response tremor: Provoked [3]: 0; Peripheral cholinergic response: Salivat. [3]: 0; Peripheral cholinergic response: Sweating [3]: 0; Peripheral cholinergic response: Weeping [3]: 0
"CCc1oc2ccccc2c1OC(C)(C)C(N)=NO [Compound 46, 2-(2-Ethyl-3-benzofuryloxy)-2-methyl-propionamidoxime]",–,6.6,–,10%,100%,–
"CC(Oc1cccc2occc12)C(N)=NO (stereo not drawn) [Compound 3, 2-(4-Benzofuryloxy)-propionamidoxime]",2.1,8.6,–,40%,–,"influence on spontaneous motricity (spontaneous motricity): no influence on the spontaneous motricity; LD50 at 48 h ([5]; ip, intraperitoneal): 68 mg/kg; inhibition in vivo at 20 mg/kg [4, 8]: 89%; Average inhibition of hypothermia (positive °C) ([2]; 20 mg/kg oral): 1 °C"
CCC(Oc1cccc2ccccc12)C(N)=NO (stereo not drawn) [Compound 34],–,–,1.1 °C,10%,–,"inhibition in vivo at 1 mg/kg ([4]; Rattus norvegicus, ip, 0.5 h, 1 mg/kg i.p., 30 minutes after administration): 100%; antiaggressive properties [4]: powerful antiaggressive properties"
"Cc1oc2ccccc2c1OCC(N)=NO [Compound 12, 2-(2-Methyl-3-benzofuryloxy)-acetamidoxime]",0.7,–,–,–,27%,–
"NC(COc1ccc2occc2c1)=NO [Compound 5, 2-(5-Benzofuryloxy)-acetamidoxime]",1.9,–,0.5 °C,10%,60%,–
"Cc1oc2cc(OC(C)(C)C(N)=NO)ccc2c1C [Compound 4, 2-(2,3-Dimethyl-6-benzofuryloxy)-2-methyl-propionamidoxime]",2.1,0.8,0.6 °C,30%,25%,–
"Cc1cc2cc(OCC(N)=NO)ccc2o1 [Compound 33, 2-(2-Methyl-5-benzofuryloxy)-acetamidoxime]",–,–,–,–,–,"Average decrease of Ptosis (reserpine-induced ptosis; 100 mg/kg oral): 2.0; Average increase of the stereotypies [1, 9]: 4; inhibition in vivo at 20 mg/kg [4, 8]: 60%"
"NC(CCOc1ccc2ccccc2c1)=NO [Compound 18, 3-(2-Naphthyloxy)-propionamidoxime]",0.4,–,–,10%,100%,antiaggressive properties [4]: powerful antiaggressive properties
"CCC(Oc1cccc2c1OCCO2)C(N)=NO (stereo not drawn) [Compound 14, 2-[(1,4-Benzodioxanyl)-5-oxy]-butyramidoxime]",0.6,4.2,0.4 °C,–,80%,–
"NC(CCOc1cccc2ccccc12)=NO [Compound 6, 3-(1-Naphthyloxy)-propionamidoxime]",1.5,–,–,30%,30%,–
"CC(Oc1cccc2ccoc12)C(N)=NO (stereo not drawn) [Compound 2, 2-(7-Benzofuryloxy)-propionamidoxime]",2.4,9,–,50%,–,"influence on spontaneous motricity (spontaneous motricity): no influence on the spontaneous motricity; LD50 at 48 h ([6]; ip, intraperitoneal): 62.5 mg/kg; LD50 at 48 h ([6]; oral): 440 mg/kg; LD50 at 48 h ([5]; ip, intraperitoneal): 68 mg/kg; LD50 at 48 h ([5]; oral): 170 mg/kg; Average increase of the stereotypies ([1]; 0.05 mg/kg intragastric, 150 minutes): 9; inhibition in vivo at 20 mg/kg [4, 8]: 50%; damage to the neuromuscular functions (neuromuscular functions): did not cause any damage to the neuromuscular functions up to 40 mg/kg; Average inhibition of hypothermia (positive °C) ([2]; 100 mg/kg oral): 0.8 °C"
"NC(CCOc1cccc2ccoc12)=NO [Compound 8, 3-(7-Benzofuryloxy)-propionamidoxime]",1.3,5.6,0.4 °C,30%,70%,influence on spontaneous motricity (spontaneous motricity): no influence on the spontaneous motricity
"NC(COc1cccc2sccc12)=NO [Compound 26, 2-(4-Benzothienyloxy)-acetamidoxime]",–,–,–,–,27%,"Average decrease of Ptosis (reserpine-induced ptosis; 20 mg/kg oral): 1.4; Potentiation of the toxicity of yohimbine (toxicity of yohimbine; 20 mg/kg oral, 24 hours): 50%; Mean increase of the stereotypies ([1]; 20 mg/kg oral, 5 mg/kg of amphetamine): 6.8"
"CC(C)(Oc1cccc2ccoc12)C(N)=NO [Compound 30, 2-(7-Benzofuryloxy)-2-methyl-propionamidoxime]",–,–,–,–,–,"Average decrease of Ptosis (reserpine-induced ptosis; 100 mg/kg oral): 2.3; Average increase of the stereotypies [1, 9]: 6.5; inhibition in vivo at 20 mg/kg [4, 8]: 75%; Average inhibition of hypothermia (positive °C) ([2]; 100 mg/kg oral): 1 °C"
"CC(Oc1cccc2c1OCC2)C(N)=NO (stereo not drawn) [Compound 9, 2-(2,3-Dihydro-7-benzofuryloxy)-propionamidoxime]",1.3,6.2,0.5 °C,10%,–,influence on spontaneous motricity (spontaneous motricity): no influence on the spontaneous motricity
